pKd: −log10 of the molar value.
Key:
Galectin-1 = Galectin-1 (Homo sapiens, UniProt P09382); test: fluorescence anisotropy assay, compound as inhibitor of galectin / fluorescein tagged saccharide probe interaction; type: binding
Description: (§1) Anal. Biochem. 334: 36-47, (Sörme et al., 2004) and Monovalent interactions of Galectin-1 By Salomonsson, Emma; Larumbe, Amaia; Tejler, Johan; Tullberg, Erik; Rydberg, Hanna; Sundin, Anders; Khabut, Areej; Frejd, Torbjorn; Lobsanov, Yuri D.; Rini, James M.; et al, From Biochemistry (2010), 49(44), 9518-9532, (Salomonsson et al., 2010).

Galectin-3 = Galectin-3 (Homo sapiens, UniProt P17931); test: as above; type: binding
Description: as §1

Chain of Galectin-1 (P09382 whole entry): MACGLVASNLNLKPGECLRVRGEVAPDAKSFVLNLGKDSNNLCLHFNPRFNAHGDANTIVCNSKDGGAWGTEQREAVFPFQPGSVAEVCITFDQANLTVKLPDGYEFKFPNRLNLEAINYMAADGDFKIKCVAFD
Chain of Galectin-3 (P17931 whole entry): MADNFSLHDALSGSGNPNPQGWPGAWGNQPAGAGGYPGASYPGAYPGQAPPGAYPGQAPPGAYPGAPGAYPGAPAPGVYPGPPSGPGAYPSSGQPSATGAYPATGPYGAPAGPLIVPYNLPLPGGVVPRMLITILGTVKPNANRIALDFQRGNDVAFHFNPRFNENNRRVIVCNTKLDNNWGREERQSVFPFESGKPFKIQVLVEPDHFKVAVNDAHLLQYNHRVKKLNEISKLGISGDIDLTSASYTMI

| SMILES | pKd (Galectin-1) | pKd (Galectin-3) |
| --- | --- | --- |
| OC[C@H]1O[C@H](Sc2cncc(Cl)c2)[C@H](O)[C@@H](n2cc(-c3nc(Cl)cs3)nn2)[C@H]1O [Example 48, 5-Chloropyridin-3-yl 3-[4-(4-chlorothiazol-2-yl)-1H-1,2,3-triazol-1-yl]-3-deoxy-1-thio-α-D-galactopyranoside] | 6.82 | 6.38 |
| OC[C@H]1O[C@H](Sc2cncc(Br)c2)[C@H](O)[C@@H](n2cc(-c3nc(Cl)cs3)nn2)[C@H]1O [Example 49, 5-Bromopyridin-3-yl 3-[4-(4-chlorothiazol-2-yl)-1H-1,2,3-triazol-1-yl]-3-deoxy-1-thio-α-D-galactopyranoside] | 6.82 | 6.72 |
| N#Cc1ccc(Cl)cc1S[C@H]1O[C@H](CO)[C@H](O)[C@H](n2cc(-c3nc(Cl)cs3)nn2)[C@H]1O [Example 50, 5-Chloro-2-cyanophenyl 3-[4-(4-chlorothiazol-2-yl)-1H-1,2,3-triazol-1-yl]-3-deoxy-1-thio-α-D-galactopyranoside] | 6.96 | 6.64 |
| N#Cc1cc(Cl)cc(S[C@H]2O[C@H](CO)[C@H](O)[C@H](n3cc(-c4nc(Cl)cs4)nn3)[C@H]2O)c1 [Example 51, 3-Chloro-5-cyanophenyl 3-[4-(4-chlorothiazol-2-yl)-1H-1,2,3-triazol-1-yl]-3-deoxy-1-thio-α-D-galactopyranoside] | 6.60 | 6.43 |
| N#Cc1ccc(S[C@H]2O[C@H](CO)[C@H](O)[C@H](n3cc(-c4nc(Cl)cs4)nn3)[C@H]2O)cc1Cl [Example 52, 3-Chloro-4-cyanophenyl 3-[4-(4-chlorothiazol-2-yl)-1H-1,2,3-triazol-1-yl]-3-deoxy-1-thio-α-D-galactopyranoside] | 6.77 | 6.39 |
| CO[C@@H]1[C@@H](n2cc(-c3nc(Cl)cs3)nn2)[C@@H](O)[C@@H](CO)O[C@@H]1Sc1cncc(Cl)c1 [Example 53, 5-Chloropyridin-3-yl 3-[4-(4-chlorothiazol-2-yl)-1H-1,2,3-triazol-1-yl]-3-deoxy-2-O-methyl-1-thio-α-D-galactopyranoside] | 7.27 | 6.47 |
| CO[C@@H]1[C@@H](n2cc(-c3nc(Cl)cs3)nn2)[C@@H](O)[C@@H](CO)O[C@@H]1Sc1cncc(Br)c1 [Example 54, 5-Bromopyridin-3-yl 3-[4-(4-chlorothiazol-2-yl)-1H-1,2,3-triazol-1-yl]-3-deoxy-2-O-methyl-1-thio-α-D-galactopyranoside] | 7.05 | 6.72 |
| CO[C@@H]1[C@@H](n2cc(-c3nc(Cl)c(Cl)s3)nn2)[C@@H](O)[C@@H](CO)O[C@@H]1Sc1cc(Br)cnc1C#N [Example 55, 5-Bromo-2-cyanopyridin-3-yl 3-[4-(4,5-dichlorothiazol-2-yl)-1H-1,2,3-triazol-1-yl]-3-deoxy-2-O-methyl-1-thio-α-D-galactopyranoside] | 6.82 | 7.55 |
| CO[C@@H]1[C@@H](n2cc(-c3nccs3)nn2)[C@@H](O)[C@@H](CO)O[C@@H]1Sc1cc(Br)ccc1C#N [Example 56, 5-Bromo-2-cyanophenyl 3-deoxy-2-O-methyl-3-[4-(2-thiazolyl)-1H-1,2,3-triazol-1-yl]-1-thio-α-D-galactopyranoside] | 7.02 | 5.68 |
| CO[C@@H]1[C@@H](n2cc(-c3nc(Cl)cs3)nn2)[C@@H](O)[C@@H](CO)O[C@@H]1Sc1cc(Br)ccc1C#N [Example 57, 5-Bromo-2-cyanophenyl 3-[4-(4-chlorothiazol-2-yl)-1H-1,2,3-triazol-1-yl]-3-deoxy-2-O-methyl-1-thio-α-D-galactopyranoside] | 7.68 | 6.85 |
| CO[C@@H]1[C@@H](n2cc(-c3csc(O)n3)nn2)[C@@H](O)[C@@H](CO)O[C@@H]1Sc1cc(Br)ccc1C#N [Example 58, 5-Bromo-2-cyanophenyl 3-deoxy-3-[4-(2-hydroxythiazol-4-yl)-1H-1,2,3-triazol-1-yl]-2-O-methyl-1-thio-α-D-galactopyranoside] | 7.66 | 5.70 |
| CO[C@@H]1[C@@H](n2cc(-c3csc(N)n3)nn2)[C@@H](O)[C@@H](CO)O[C@@H]1Sc1cc(Br)ccc1C#N [Example 59, 5-Bromo-2-cyanophenyl 3-[4-(2-aminothiazol-4-yl)-1H-1,2,3-triazol-1-yl]-3-deoxy-2-O-methyl-1-thio-α-D-galactopyranoside] | 7.27 | 5.66 |
| CNC(=O)c1ccc(Br)cc1S[C@H]1OC(CO)[C@H](O)C(n2cc(-c3nc(Cl)cs3)nn2)C1OC (stereo partly drawn) [Example 60, 5-Bromo-2-(N-methyl-carbonyl)phenyl 3-[4-(4-chlorothiazol-2-yl)-1H-1,2,3-triazol-1-yl]-3-deoxy-2-O-methyl-1-thio-α-D-galactopyranoside] | 7.41 | 6.74 |
| CNC(=O)c1ccc(Br)cc1S[C@H]1OC(CO)[C@H](O)C(n2cc(-c3nccs3)nn2)C1OC (stereo partly drawn) [Example 61, 5-Bromo-2-(N-methyl-carbonyl)phenyl 3-deoxy-2-O-methyl-3-[4-(2-thiazolyl)-1H-1,2,3-triazol-1-yl]-1-thio-α-D-galactopyranoside] | 7.10 | 5.52 |
| CNC(=O)c1ccc(Cl)cc1S[C@H]1OC(CO)[C@H](O)C(n2cc(-c3nccs3)nn2)C1OC (stereo partly drawn) [Example 62, 5-Chloro-2-(N-methyl-carbonyl)phenyl 3-deoxy-2-O-methyl-3-[4-(2-thiazolyl)-1H-1,2,3-triazol-1-yl]-1-thio-α-D-galactopyranoside] | 7.11 | 5.51 |
| CO[C@@H]1[C@@H](n2cc(-c3nc(C)cs3)nn2)[C@@H](O)[C@@H](CO)O[C@@H]1Sc1cc(Br)ccc1C#N [Example 63, 5-Bromo-2-cyanophenyl 3-deoxy-3-[4-(4-methylthiazol-2-yl)-1H-1,2,3-triazol-1-yl]-2-O-methyl-1-thio-α-D-galactopyranoside] | 7.27 | 5.54 |
| CO[C@@H]1[C@@H](n2cc(-c3nc(C)c(Cl)s3)nn2)[C@@H](O)[C@@H](CO)O[C@@H]1Sc1cc(Br)cnc1C#N [Example 64, 5-Bromo-2-cyanopyridin-3-yl 3-[4-(5-chloro-4-methylthiazol-2-yl)-1H-1,2,3-triazol-1-yl]-3-deoxy-2-O-methyl-1-thio-α-D-galactopyranoside] | 6.55 | 6.66 |
| CO[C@@H]1[C@@H](n2cc(-c3nc(C)c(Cl)s3)nn2)[C@@H](O)[C@@H](CO)O[C@@H]1Sc1cc(Br)ccc1C#N [Example 65, 5-Bromo-2-cyanophenyl 3-[4-(5-chloro-4-methylthiazol-2-yl)-1H-1,2,3-triazol-1-yl]-3-deoxy-2-O-methyl-1-thio-α-D-galactopyranoside] | 6.34 | 6.62 |
| CO[C@@H]1[C@@H](n2cc(-c3nccs3)nn2)[C@@H](O)[C@@H](CO)O[C@@H]1Sc1cc(Cl)ccc1Cl [Example 66, 2,5-Dichlorophenyl 3-deoxy-2-O-methyl-3-[4-(2-thiazolyl)-1H-1,2,3-triazol-1-yl]-1-thio-α-D-galactopyranoside] | 6.66 | 5.39 |
| CO[C@@H]1[C@@H](n2cc(-c3nccs3)nn2)[C@@H](O)[C@@H](CO)O[C@@H]1Sc1cc(Br)ccc1Cl [Example 67, 5-Bromo-2-chlorophenyl 3-deoxy-2-O-methyl-3-[4-(2-thiazolyl)-1H-1,2,3-triazol-1-yl]-1-thio-α-D-galactopyranoside] | 6.59 | 5.46 |
| CO[C@@H]1[C@@H](n2cc(-c3nccs3)nn2)[C@@H](O)[C@@H](CO)O[C@@H]1Sc1cc(Cl)ccc1F [Example 68, 5-Chloro-2-fluorophenyl 3-deoxy-2-O-methyl-3-[4-(2-thiazolyl)-1H-1,2,3-triazol-1-yl]-1-thio-α-D-galactopyranoside] | 6.60 | 5.36 |
| CO[C@@H]1[C@@H](n2cc(-c3nc(C)cs3)nn2)[C@@H](O)[C@@H](CO)O[C@@H]1Sc1cc(Br)ccc1F [Example 69, 5-Bromo-2-fluorophenyl 3-deoxy-3-[4-(4-methylthiazol-2-yl)-1H-1,2,3-triazol-1-yl]-2-O-methyl-1-thio-α-D-galactopyranoside] | 6.19 | 4.92 |
| N#Cc1ncc(Cl)cc1S[C@H]1O[C@H](CO)[C@H](O)[C@H](n2cc(-c3csc(Cl)n3)nn2)[C@H]1O [Example 70, 5-Chloro-2-cyanopyridin-3-yl 3-[4-(2-chlorothiazol-4-yl)-1H-1,2,3-triazol-1-yl]-3-deoxy-1-thio-α-D-galactopyranoside] | 6.48 | 6.38 |
| CCO[C@@H]1[C@@H](n2cc(-c3nccs3)nn2)[C@@H](O)[C@@H](CO)O[C@@H]1Sc1cc(Cl)cnc1C#N [Example 71, 5-Chloro-2-cyanopyridin-3-yl 3-deoxy-2-O-ethyl-3-[4-(2-thiazolyl)-1H-1,2,3-triazol-1-yl]-1-thio-α-D-galactopyranoside] | 6.92 | 5.44 |
| CCO[C@@H]1[C@@H](n2cc(-c3csc(N)n3)nn2)[C@@H](O)[C@@H](CO)O[C@@H]1Sc1cc(Cl)cnc1C#N [Example 72, 5-Chloro-2-cyanopyridin-3-yl 3-[4-(2-aminothiazol-4-yl)-1H-1,2,3-triazol-1-yl]-3-deoxy-2-O-ethyl-1-thio-α-D-galactopyranoside] | 6.36 | 5.52 |
| CO[C@@H]1[C@@H](n2cc(-c3csc(N)n3)nn2)[C@@H](O)[C@@H](CO)O[C@@H]1Sc1cc(Cl)ccc1C#N [Example 73, 5-Chloro-2-cyanophenyl 3-[4-(2-aminothiazol-4-yl)-1H-1,2,3-triazol-1-yl]-3-deoxy-2-O-methyl-1-thio-α-D-galactopyranoside] | 7.25 | 5.49 |
| Nc1nc(-c2cn([C@@H]3[C@@H](O)[C@@H](Sc4cc(Cl)cnc4-c4ncc[nH]4)O[C@H](CO)[C@@H]3O)nn2)cs1 [Example 74, 5-Chloro-2-(1H-imidazol-2-yl)pyridin-3-yl 3-[4-(2-aminothiazol-4-yl)-1H-1,2,3-triazol-1-yl]-3-deoxy-1-thio-α-D-galactopyranoside] | 6.44 | 4.95 |
